Test results as given in paper PMC9748900, “Unconventional isoquinoline-based SERMs elicit fulvestrant-like transcriptional programs in ER+ breast cancer cells” (NPJ Breast Cancer, 2022).
“Also recorded” adds a separate entry of the source. Like-named read-outs stand apart in the source and are kept apart here. Each block holds one molecule with its values, some of them ahead of it.

What was measured:
[1] = test system: Ishikawa endometrial cells; assay: Alkaline phosphatase (AP) assay in Ishikawa cells; type: cell-based, human; conditions: 72 h; for AP1 Induction: 1 nM E2 or 1 μM compound, absorbance at 405 nm, mean + std. dev., n = 3-9
Source text: SERM enhancement of ERα accumulation in breast cancer cells correlates with uterotrophic activities[22],[30]. Despite the inclusion of side arms from known SERDs, most T6Is appeared SERM-like in breast cancer cells as they increased ERα levels. To measure the SERM-agonist activities of the T6Is, we employed an AP activity assay in Ishikawa endometrial cells[22],[32],[40]. […] Many T6Is show unexpected AP activities in these cells. […] Therefore, we would expect these SERMs to show a greater induction of AP (Supplementary Fig. 5). […] This difference was significant (p = 0.004) compared to 4OHT, which measured 0.68 ± 0.12 absorbance units. In most studies of SERM-agonist activities, AP assays are combined with increases in uterine wet-weight in vivo[22],[41],[42].
AP assays were performed as described. Briefly, 15,000 Ishikawa cells were seeded into 96-well plates then placed in serum-starved medium for 48–72 h. Cells were treated for three days with veh, hormone, SERM, or SERD. The media was aspirated and the cells were frozen at −80 °C for at least 24 h. Cells were thawed then incubated with p-nitrophenyl phosphate (ThermoFisher) chromogenic AP substrate. After 60 min at 40 °C, absorbance was read at 405 nm on a BioTek Cytation 5 plate reader.

ERα [2] = target: T1, ERα (Homo sapiens, UniProt P03372); assay: ERE transcriptional reporter gene assay in MCF7 cells; type: cell-based; parameters: endogenous in cells; host or cells: MCF7 cells with 3x-ERE-GFP reporter
T1 sequence (P03372 1-595): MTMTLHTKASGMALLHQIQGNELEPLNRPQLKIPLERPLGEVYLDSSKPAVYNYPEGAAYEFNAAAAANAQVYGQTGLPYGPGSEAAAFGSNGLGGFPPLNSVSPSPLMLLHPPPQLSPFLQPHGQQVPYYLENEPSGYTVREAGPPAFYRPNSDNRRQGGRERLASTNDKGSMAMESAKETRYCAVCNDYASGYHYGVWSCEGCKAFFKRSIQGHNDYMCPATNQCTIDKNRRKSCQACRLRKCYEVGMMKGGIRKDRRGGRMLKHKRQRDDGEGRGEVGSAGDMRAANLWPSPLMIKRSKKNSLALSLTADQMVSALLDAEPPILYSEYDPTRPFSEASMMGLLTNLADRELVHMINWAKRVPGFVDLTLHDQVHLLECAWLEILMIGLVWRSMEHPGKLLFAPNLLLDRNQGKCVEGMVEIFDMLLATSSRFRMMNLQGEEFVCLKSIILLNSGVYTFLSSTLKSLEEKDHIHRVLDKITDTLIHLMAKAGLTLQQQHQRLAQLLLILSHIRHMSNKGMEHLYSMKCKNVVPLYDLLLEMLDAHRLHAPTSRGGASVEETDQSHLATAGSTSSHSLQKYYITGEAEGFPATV
Description: A cyclopropyl group was used in place of RAD1901’s ethylamine. […] We initially synthesized 4 derivatives comprised of different pharmacophores on the analogous steroidal A ring (Fig. 2d) and used an ERE reporter gene assay in MCF7 breast cancer cells to measure their transcriptional inhibitory activities.
This assay was performed in accordance with a previous report. MCF7 breast cancer cells with a 3x-estrogen response element-green fluorescent protein (GFP) reporter gene construct under a CMV promoter were plated in 96-well dishes at 3000 cells per well. Cells were cultured for 48 h in stripped media that included charcoal stripped fetal bovine serum (FBS). Cells were treated with increasing concentrations of antiestrogen (5 pm to 1 µM) for 24 h. Subsequently, percent GFP-positive cells were imaged using a BioTek Cytation 5 live cell imager. All assays were performed three times with three technical replicates each.

Ishikawa cells = assay: Ishikawa cell count (endometrial proliferation); type: cell-based, human; conditions: 1 nM E2 or 1 μM antiestrogen, 144 h
[3] = test system: transcriptome of T47D breast cancer cells; assay: RNA sequencing of T47D cells; type: cell-based
Description: We next used RNA transcriptomic analysis (RNAseq) to identify differentially affected genes. […] All sequencing runs were performed with three replicates per treatment.
T47D breast cancer cells were grown in 6-well dishes at 50,000 cells per well. […] After 24 h, they were placed in serum-starved media for 48 h. […] RNA was isolated using a Qiagen RNeasy Kit then sent to Novogene for sequencing and bioinformatics analysis.

T47D breast cancer cells = assay: Cellular proliferation (label-free cell count), T47D; type: cell-based; conditions: 1 nM E2, normalized to vehicle
Description: In addition, we used a crystal violet assay to measure the effect of T6I-14-1 on MCF7 viability.
MCF7, MCF7:WS:8, Y537S ESR1 MCF7 and T47D breast cancer cell lines were grown in 96-well dishes at a starting cell count of 1000 cells per well. […] Cells were grown in a BioSpa attached to a BioTek Cytation 5 and were automatically counted every twelve hours for 7–10 days or until the E2-only wells reached confluence. Media was replaced every 4 days and drug was maintained in each media change. Each study was repeated three times with three technical replicates each.

ERα [4] = target: T1, ERα; assay: In-cell Western of ERα levels in MCF7:WS8 cells; type: cell-based; parameters: endogenous in cells; conditions: MCF7:WS8, 1 μM, 24 h, compared to 4OHT
Source text: SERMs and SERDs differentially affect ERα cellular lifetime/accumulation, which correlates with tissue-specific partial agonistic activities. SERMs increase WT ERα lifetime and are partial agonists in the bone and uterine epithelium by maintaining AF-1-dependent transcriptional coactivator recruitment. SERDs induce rapid WT ERα degradation and are pure antagonists[14],[17],[19],[22],[33]. […] We used an in-cell Western approach to measure how a subset of T6Is affected ERα levels in MCF7:WS8 breast cancer cells. […] A live cell halo-tagged ERα assay was then used to measure the impact of an expanded set of T6Is on receptor accumulation in T47D breast cancer cells after 24 h treatment. […] The difference between T6I-14 and 4OHT was not statistically significant in this assay. […] The IC50 values generally trended with observed differences in transcriptional IC50 (Fig. 2), while the effect at maximum dose varied greatly.
In-cell Western analysis was performed in a similar manner as previously described. Briefly, T47D or MCF7:WS8 breast cancer cells were grown in blackout 96-well plates starting at 3000 cells per well. After 24 h, cells were placed in serum-starved media and allowed to acclimate for 48–72 h. Cells were treated with hormone, SERM, or SERD alongside vehicle control for 24 h. […] All data were collected on a LI-COR Odyssey DLx and analyzed using Emperia Studio. […]

[5] = test system: gene expression in MCF7:WS8 breast cancer cells; assay: qPCR gene expression in MCF7:WS8 cells
[6] = test system: gene expression in T47D breast cancer cells; assay: qPCR gene expression in T47D cells; type: cell-based; conditions: 1 μM + 1 nM E2, 16 h
[7] = test system: patients with advanced disease with prior hormone therapy; conditions: compared to standard of care ref 6, cited from earlier work
[8] = MCF7, 1 nM E2, read-out: Log(IC50) (converted)

SMILES: CCCN1CCC(CSc2ccc(C3c4ccc(O)cc4CC4(CC4)N3C(=O)c3ccccc3)cc2)C1 (stereo not drawn) [T6I-SH]
AP1 Induction [1]: 0.42 + 0.07

IC50 (ERα [2]; [8]): 170 nM
SMILES: O=C(CC(F)(F)F)N1C(c2ccc(OCCN3CCCC3)cc2)c2ccc(O)cc2CC12CC2 (stereo not drawn) [T6I-1C]

SMILES: C[C@]12CC[C@@H]3c4ccc(O)cc4CC[C@H]3[C@@H]1CC[C@@H]2O [E2, 17β-estradiol]
Ishikawa cell count (Ishikawa cells): robust enhancement of proliferation
SUMO-related differentially expressed genes (RNAseq) [3]: downregulates SUMO1 and upregulates desumoylating enzymes including SENP1 and SENP8

SMILES: O=C(c1ccccc1)N1C(c2ccc(OCC3CN(CCCCl)C3)cc2)c2ccc(O)cc2CC12CC2 (stereo not drawn) [T6I-4B]
AP1 Induction [1]: 0.61 + 0.10
AP induction (in words) ([1]; 1 μM): significant induction of AP compared to the propylazetidine-containing T6I-4

SMILES: CCN1CC(COc2ccc(C3c4ccc(O)cc4CC4(CC4)N3C(=O)c3ccccc3)cc2)C1 (stereo not drawn) [T6I-3]
anti-proliferative activity, cell count after 7 days (Fig. 7) (T47D breast cancer cells): did not improve anti-proliferative activities
AP1 Induction [1]: 0.34 + 0.07

IC50 (ERα [2]; [8]): 123 nM
IC50 (ERα [2]; MCF7, 1 nM E2, read-out: anti-transcriptional IC50): ~100 nM
SMILES: O=C(c1ccccc1)N1C(c2ccc(OCCN3CCCC3)cc2)c2ccc(O)cc2CC12CC2 (stereo not drawn) [T6I-1D]

ERα levels by in-cell Western (ERα [4]): significant enhancement
SMILES: CCCN1CCC(COc2ccc(C3c4ccc(O)cc4CC4(CC4)N3C(=O)c3ccccc3)cc2)C1 (stereo not drawn) [T6I-14]

SMILES: CCCCCN1CCC(COc2ccc(C3c4ccc(O)cc4CC4(CC4)N3C(=O)c3ccccc3)cc2)C1 (stereo not drawn) [T6I-23]
AP1 Induction [1]: 0.44 + 0.08

SMILES: O=C(c1ccccc1)N1C(c2ccc(OCC3CCN(CCCF)C3)cc2)c2ccc(O)cc2CC12CC2 (stereo not drawn) [T6I-29]
anti-proliferative activity, cell count after 7 days (Fig. 7) (T47D breast cancer cells): slightly improved efficacy versus propyl alone
AP1 Induction [1]: 0.63 + 0.08
AP induction (in words) ([1]; 1 μM): greater induction of AP1 compared to its separated chiral species

SMILES: CCCN1CC(COc2ccc(C3c4ccc(O)cc4CC4(CC4)N3C(=O)c3ccccc3)cc2)C1 (stereo not drawn) [T6I-4]
AP1 Induction [1]: 0.24 + 0.07
AP induction (in words) ([1]; 1 μM): AP induction similar to a SERD; also recorded: no measurable AP1 activity

SMILES: Oc1ccc2c(c1)CC[C@H](c1ccccc1)[C@@H]2c1ccc(OCCN2CCCC2)cc1 [Laso, lasofoxifene]
AP1 Induction [1]: 0.51 + 0.16
AP activity ([1]; 1 μM): 0.51 ± 0.16 absorbance units
cMYC mRNA ([5]; MCF7:WS8, 1 μM + 1 nM E2): upregulated cMYC but it was significantly less (p = 0.02) than T6I-29-1A
CDK1 mRNA [6]: slightly upregulated CDK1
RPS6KL1 mRNA [6]: only slightly enriched

SMILES: CCCCN1CCC(COc2ccc(C3c4ccc(O)cc4CC4(CC4)N3C(=O)c3ccccc3)cc2)C1 (stereo not drawn) [T6I-22]
AP1 Induction [1]: 0.55 + 0.06

SMILES: CCCN1CCC(CNc2ccc(C3c4ccc(O)cc4CC4(CC4)N3C(=O)c3ccccc3)cc2)C1 (stereo not drawn) [T6I-NH]
AP1 Induction [1]: 0.50 + 0.09

SMILES: O=C(c1ccccc1)N1C(c2ccc(OCC3CN(CCCF)C3)cc2)c2ccc(O)cc2CC12CC2 (stereo not drawn) [T6I-4A]
AP1 Induction [1]: 0.69 + 0.16
AP induction (in words) ([1]; 1 μM): significant induction of AP compared to the propylazetidine-containing T6I-4

SMILES: CCNCCc1ccc(CN(CC)c2cc(OC)ccc2[C@@H]2CCc3cc(O)ccc3C2)cc1 [RAD1901, elacestrant]
AP1 Induction [1]: 0.28 + 0.08
CDK1 mRNA ([5]; MCF7:WS8): downregulated its expression
reduced risk of disease progression or death ([7]; all patients): 30%
reduced risk of disease progression or death ([7]; patients with ESR1 mutations, including the Y537S): 45%
CDK1 mRNA [6]: slightly upregulated CDK1
RPS6KL1 mRNA [6]: only slightly enriched

SMILES: CCCN1CCC(CCc2ccc(C3c4ccc(O)cc4CC4(CC4)N3C(=O)c3ccccc3)cc2)C1 (stereo not drawn) [T6I-Me]
AP1 Induction [1]: 0.57 + 0.08

SMILES: CC/C(=C(\c1ccc(O)cc1)c1ccc(OCCN(C)C)cc1)c1ccccc1 [4OHT, 4-hydroxytamoxifen, reference compound]
AP1 Induction [1]: 0.67 + 0.12
AP induction (in words) ([1]; 1 μM): robust stimulation of AP activity
Ishikawa cell count (Ishikawa cells): marginal but insignificant increase to cell count
